Measured values as given in the NIST ThermoML archive (doi:10.1021/je100776x).
± gives the expanded uncertainty stated by the source.

Columns and labels:
[1] = Liquid; for mass density: 298.15 K, 101.33 kPa, Vibrating tube method; for Normal boiling temperature: Ebulliometric method (Recirculating still)
[2] = refractive index (Na D-line) (dimensionless); conditions: 298.15 K; 101.33 kPa; Liquid; Standard Abbe refractometry

CC(=O)CC(C)C [4-methylpentan-2-one]
Conditions	mass density [kg/m3]	refractive index
[1]	796.03 ± 0.14	–
[2]	–	1.3942 ± 0.0005

[1]
Conditions	vapor or sublimation pressure [kPa]
343.76 K	22.45 ± 0.2
346.51 K	24.97 ± 0.2
349.09 K	27.43 ± 0.21
351.46 K	29.98 ± 0.21
353.65 K	32.46 ± 0.21
355.76 K	35.07 ± 0.21
357.68 K	37.44 ± 0.21
359.54 K	39.99 ± 0.21
361.33 K	42.54 ± 0.21
362.97 K	44.96 ± 0.21
364.61 K	47.52 ± 0.21
366.15 K	50.02 ± 0.21
367.55 K	52.44 ± 0.21
369.05 K	55.08 ± 0.22
370.35 K	57.48 ± 0.22
371.66 K	59.96 ± 0.22
372.96 K	62.51 ± 0.22
374.22 K	65.08 ± 0.22
375.35 K	67.44 ± 0.22
376.56 K	70.07 ± 0.22
377.63 K	72.41 ± 0.22
378.73 K	74.98 ± 0.23
379.78 K	77.41 ± 0.23
380.83 K	79.93 ± 0.23
381.84 K	82.44 ± 0.23
382.84 K	84.96 ± 0.23
383.8 K	87.44 ± 0.23
384.71 K	89.85 ± 0.23
385.67 K	92.47 ± 0.23
386.6 K	95.07 ± 0.24
387.45 K	97.46 ± 0.24
387.82 K	98.52 ± 0.24
388.33 K	99.98 ± 0.24
388.78 K	101.33 ± 0.24

C1CCCCC1 [cyclohexane]
Conditions	Normal boiling temperature [°C]	mass density [kg/m3]	refractive index
[1]	80.58 ± 0.2	773.82 ± 0.13	–
[2]	–	–	1.4238 ± 0.0005

C1=CCCCC1 [cyclohexene]
Conditions	Normal boiling temperature [°C]	mass density [kg/m3]	refractive index
[1]	82.82 ± 0.21	805.69 ± 0.14	–
[2]	–	–	1.4444 ± 0.0005
